# Reference: paper PMC9150124, “Design of a Potent, Selective, and Brain-Penetrant Inhibitor of Wnt-Deactivating Enzyme Notum by Optimization of a Crystallographic Fragment Hit” (Journal of Medicinal Chemistry, 2022)
# Like-named read-outs stand apart in the source and are kept apart here.
# Experiments:
# [1] = Brain tissue binding, rapid equilibrium dialysis; type: in vitro ADME, mouse; conditions: for fraction unbound at 5 h, 10 µM: brain homogenate
# [2] = target: kinase named in conditions (Homo sapiens, UniProt Q06418); assay: SelectScreen kinase profiling, SSBK ZLyte SP Technology; type: biochemical; conditions: TYRO3 (RSE), 10 μM
# Protocol: (§1) Kinase selectivity screening was performed by Thermo Fisher Scientific (Paisley, U.K.) in their SelectScreen Biochemical Kinase Profiling Service. Assay information and data are presented in the Supporting Information.
# (§2) Kinase selectivity screening was performed by ThermoFisher Scientific (Paisley, U.K.) in their SelectScreenTM
# (§3) Biochemical Kinase Profiling service .
# [3] = target: kinase named in conditions (Homo sapiens, UniProt O95819); assay: as above; type: biochemical; conditions: MAP4K4 (HGK), 10 μM
# Protocol: as §1, §2, §3
# [4] = test system: kinase named in conditions; assay: as above; type: biochemical
# Protocol: as §1, §2, §3
# [5] = target: kinase named in conditions (Homo sapiens, UniProt P07947); assay: as above; type: biochemical; conditions: YES1, 10 μM
# Protocol: as §1, §2, §3
# [6] = target: kinase named in conditions (Homo sapiens, UniProt P49759); assay: as above; type: biochemical; conditions: CLK1, 10 μM
# Protocol: as §1, §2, §3
# [7] = target: kinase named in conditions (Homo sapiens, UniProt Q05513); assay: as above; type: biochemical; conditions: PRKCZ (PKC zeta), 10 μM
# Protocol: as §1, §2, §3
# [8] = target: kinase named in conditions (Homo sapiens, UniProt P16234, V561D); assay: as above; type: biochemical; conditions: PDGFRA V561D, 10 μM
# Protocol: as §1, §2, §3
# [9] = target: kinase named in conditions (Homo sapiens, UniProt P00533, L861Q); assay: as above; type: biochemical; conditions: EGFR (ErbB1) L861Q, 10 μM
# Protocol: as §1, §2, §3
# [10] = target: kinase named in conditions (Homo sapiens, UniProt Q9UM73); assay: as above; type: biochemical; conditions: ALK, 10 μM
# Protocol: as §1, §2, §3
# [11] = target: kinase named in conditions (Homo sapiens, UniProt O15075); assay: as above; type: biochemical; conditions: DCAMKL1 (DCLK1), 10 μM
# Protocol: as §1, §2, §3
# [12] = target: kinase named in conditions (Homo sapiens, UniProt P51957); assay: as above; type: biochemical; conditions: NEK4, 10 μM
# Protocol: as §1, §2, §3
# CYP3A4 = CYP3A4 (Homo sapiens, UniProt P08684); assay: CYP450 inhibition in HLM
# [13] = Stability in mouse liver microsomes; type: in vitro ADME; conditions: for half-life: mouse, liver microsomes, read-out: MLM Stability t1/2
# [14] = test system: 47 human off-target liabilities; assay: DiscoverX Safety47 panel (78 functional assays); conditions: @ 30 μM
# Protocol: Screening for off-target pharmacology across multiple drug target classes was performed in the DiscoverX Safety47 panel as the SAFETYscan E/IC50 ELECT service by Eurofins (San Diego CA, U.S.A.). Assay information and data are presented in the Supporting Information.
# Safety pharmacology studies
# Screening for off-target pharmacology across multiple drug target classes was performed in the DiscoverX Safety47™ panel as the SAFETYscan E/IC50 ELECT service by eurofins (San Diego CA, U.S.A.). The assays were performed utilizing the PathHunter enzyme fragment complementation (EFC) technology, FLIPR®-based cellular screening assays, KINOMEscan kinase binding assays, and a variety of enzymatic assays (78 assays).
# [15] = Stability in dog liver microsomes
# [16] = Plasma protein binding, rapid equilibrium dialysis; conditions: for fraction unbound at 4 h, 2 µM: plasma
# Protocol: G. Plasma protein binding (PPB):
# Method: rapid equilibrium dialysis.
# Test System Mouse Plasma (K2EDTA)
# Test compound concentration 10 µM (mouse) or 2 µM (rat)
# CYP2D6 = CYP2D6 (Homo sapiens, UniProt P10635); assay: CYP450 inhibition in HLM
# [17] = Solubility in dose formulations (cosolvents); type: physicochemical
# [18] = Metabolic stability in rat hepatocytes
# in vivo = assay: in vivo; parameters: species or system mouse
# Protocol: Mouse pharmacokinetic (PK) data was generated at Charles River Laboratories (Groningen, Netherlands) and GVK
# Biosciences (Hyderabad, India). Rat PK was performed by WuXi AppTec (Shanghai, China).
# Animal Testing Declaration: All in life phase studies were conducted in accordance with local Ethics Review
# process. See, statements from each company.
# [19] = male C57BL6 mice, i.v. 1.0 mg/kg
# CYP3A4, sequence (P08684 whole entry): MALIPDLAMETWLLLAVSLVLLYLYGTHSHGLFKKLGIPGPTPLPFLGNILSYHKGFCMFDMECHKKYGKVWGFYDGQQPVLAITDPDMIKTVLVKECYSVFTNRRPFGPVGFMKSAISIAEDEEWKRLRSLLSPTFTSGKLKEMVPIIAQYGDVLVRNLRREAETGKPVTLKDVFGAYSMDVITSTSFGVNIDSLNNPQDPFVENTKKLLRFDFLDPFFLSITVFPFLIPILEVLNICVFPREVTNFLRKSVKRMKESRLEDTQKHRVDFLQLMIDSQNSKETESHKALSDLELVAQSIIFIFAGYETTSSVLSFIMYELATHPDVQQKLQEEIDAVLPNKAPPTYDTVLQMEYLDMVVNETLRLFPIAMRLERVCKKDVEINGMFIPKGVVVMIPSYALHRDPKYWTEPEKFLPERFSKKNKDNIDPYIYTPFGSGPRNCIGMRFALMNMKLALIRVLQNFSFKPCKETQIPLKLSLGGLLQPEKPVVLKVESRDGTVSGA
# CYP2D6, sequence (P10635 whole entry): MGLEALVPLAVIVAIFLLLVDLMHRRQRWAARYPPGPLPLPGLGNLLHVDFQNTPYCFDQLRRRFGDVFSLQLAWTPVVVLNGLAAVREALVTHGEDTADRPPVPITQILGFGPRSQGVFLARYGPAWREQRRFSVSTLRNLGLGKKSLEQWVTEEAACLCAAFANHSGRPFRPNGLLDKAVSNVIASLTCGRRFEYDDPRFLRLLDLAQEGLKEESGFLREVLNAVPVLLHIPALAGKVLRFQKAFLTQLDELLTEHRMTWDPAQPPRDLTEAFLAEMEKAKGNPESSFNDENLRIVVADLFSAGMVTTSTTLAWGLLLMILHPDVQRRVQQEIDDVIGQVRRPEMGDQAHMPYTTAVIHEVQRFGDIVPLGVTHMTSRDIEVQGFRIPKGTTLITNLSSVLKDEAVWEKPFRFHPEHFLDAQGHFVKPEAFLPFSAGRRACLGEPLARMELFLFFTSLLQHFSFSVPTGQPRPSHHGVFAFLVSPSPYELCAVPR
# kinase named in conditions (Homo sapiens, UniProt P00533, L861Q), sequence (P00533 25-1210 L861Q): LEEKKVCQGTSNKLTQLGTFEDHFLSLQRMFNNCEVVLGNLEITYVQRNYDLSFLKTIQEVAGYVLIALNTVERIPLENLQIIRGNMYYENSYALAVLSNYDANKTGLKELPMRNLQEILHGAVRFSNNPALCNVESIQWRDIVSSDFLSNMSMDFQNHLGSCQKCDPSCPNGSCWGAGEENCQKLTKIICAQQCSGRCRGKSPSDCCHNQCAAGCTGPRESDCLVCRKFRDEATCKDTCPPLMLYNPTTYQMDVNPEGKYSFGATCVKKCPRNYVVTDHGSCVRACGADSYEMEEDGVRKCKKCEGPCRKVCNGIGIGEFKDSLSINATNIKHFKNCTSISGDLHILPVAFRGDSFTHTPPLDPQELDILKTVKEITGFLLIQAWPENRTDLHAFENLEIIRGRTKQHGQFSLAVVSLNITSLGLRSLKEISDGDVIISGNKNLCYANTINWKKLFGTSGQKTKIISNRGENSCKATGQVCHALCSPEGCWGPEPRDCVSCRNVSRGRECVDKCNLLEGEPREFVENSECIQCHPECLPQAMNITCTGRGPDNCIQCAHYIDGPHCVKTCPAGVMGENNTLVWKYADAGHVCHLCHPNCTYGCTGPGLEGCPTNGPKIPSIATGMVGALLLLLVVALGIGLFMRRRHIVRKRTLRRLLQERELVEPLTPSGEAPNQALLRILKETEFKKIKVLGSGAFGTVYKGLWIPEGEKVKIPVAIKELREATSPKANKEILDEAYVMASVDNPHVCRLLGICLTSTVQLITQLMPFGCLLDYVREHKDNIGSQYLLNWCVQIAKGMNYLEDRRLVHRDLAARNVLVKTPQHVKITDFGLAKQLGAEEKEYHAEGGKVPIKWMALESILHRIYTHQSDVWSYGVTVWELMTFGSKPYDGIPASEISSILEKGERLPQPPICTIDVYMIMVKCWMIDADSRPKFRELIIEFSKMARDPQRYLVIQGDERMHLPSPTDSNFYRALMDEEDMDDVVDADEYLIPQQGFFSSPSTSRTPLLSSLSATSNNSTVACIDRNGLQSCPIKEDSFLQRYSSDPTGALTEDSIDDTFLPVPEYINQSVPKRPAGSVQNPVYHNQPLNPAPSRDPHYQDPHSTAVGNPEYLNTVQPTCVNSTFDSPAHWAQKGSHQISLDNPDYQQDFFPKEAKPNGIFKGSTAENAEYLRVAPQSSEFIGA
# kinase named in conditions (Homo sapiens, UniProt P51957), sequence (P51957 whole entry): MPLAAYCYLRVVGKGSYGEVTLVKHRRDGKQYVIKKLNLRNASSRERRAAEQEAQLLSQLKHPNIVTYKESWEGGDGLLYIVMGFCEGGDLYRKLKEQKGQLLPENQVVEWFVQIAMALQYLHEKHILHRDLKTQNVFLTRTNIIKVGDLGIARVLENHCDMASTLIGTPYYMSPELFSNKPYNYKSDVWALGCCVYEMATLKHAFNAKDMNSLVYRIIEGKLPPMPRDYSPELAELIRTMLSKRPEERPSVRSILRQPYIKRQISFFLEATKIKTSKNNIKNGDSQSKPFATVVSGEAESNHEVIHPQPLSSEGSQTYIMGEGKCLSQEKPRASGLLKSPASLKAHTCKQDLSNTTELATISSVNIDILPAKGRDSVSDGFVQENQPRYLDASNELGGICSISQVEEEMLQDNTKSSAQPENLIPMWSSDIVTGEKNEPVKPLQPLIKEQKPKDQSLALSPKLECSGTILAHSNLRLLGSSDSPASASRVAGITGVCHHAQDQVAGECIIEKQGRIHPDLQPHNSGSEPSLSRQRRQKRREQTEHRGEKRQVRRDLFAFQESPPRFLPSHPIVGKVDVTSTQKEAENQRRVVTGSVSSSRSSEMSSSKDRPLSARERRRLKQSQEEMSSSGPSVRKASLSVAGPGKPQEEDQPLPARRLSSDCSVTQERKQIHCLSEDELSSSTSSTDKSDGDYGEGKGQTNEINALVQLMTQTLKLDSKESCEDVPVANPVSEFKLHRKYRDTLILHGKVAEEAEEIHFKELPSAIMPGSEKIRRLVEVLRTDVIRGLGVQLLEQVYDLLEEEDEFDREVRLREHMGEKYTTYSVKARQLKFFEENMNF
# kinase named in conditions (Homo sapiens, UniProt P07947), sequence (P07947 whole entry): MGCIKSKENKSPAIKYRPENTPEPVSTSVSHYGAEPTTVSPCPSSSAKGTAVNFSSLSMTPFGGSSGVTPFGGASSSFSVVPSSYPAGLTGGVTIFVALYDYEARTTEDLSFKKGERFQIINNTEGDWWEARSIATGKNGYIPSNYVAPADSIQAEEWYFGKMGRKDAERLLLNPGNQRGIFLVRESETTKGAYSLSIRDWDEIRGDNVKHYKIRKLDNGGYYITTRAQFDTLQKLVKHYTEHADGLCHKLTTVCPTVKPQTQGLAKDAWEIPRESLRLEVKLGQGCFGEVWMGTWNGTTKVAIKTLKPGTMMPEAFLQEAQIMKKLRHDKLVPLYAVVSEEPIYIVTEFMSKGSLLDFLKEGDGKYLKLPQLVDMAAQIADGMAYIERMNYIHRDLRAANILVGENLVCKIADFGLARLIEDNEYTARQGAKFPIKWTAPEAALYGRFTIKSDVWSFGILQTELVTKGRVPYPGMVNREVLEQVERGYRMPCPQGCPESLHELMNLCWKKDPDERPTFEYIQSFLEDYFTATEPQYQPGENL
# kinase named in conditions (Homo sapiens, UniProt O95819), sequence (O95819 whole entry): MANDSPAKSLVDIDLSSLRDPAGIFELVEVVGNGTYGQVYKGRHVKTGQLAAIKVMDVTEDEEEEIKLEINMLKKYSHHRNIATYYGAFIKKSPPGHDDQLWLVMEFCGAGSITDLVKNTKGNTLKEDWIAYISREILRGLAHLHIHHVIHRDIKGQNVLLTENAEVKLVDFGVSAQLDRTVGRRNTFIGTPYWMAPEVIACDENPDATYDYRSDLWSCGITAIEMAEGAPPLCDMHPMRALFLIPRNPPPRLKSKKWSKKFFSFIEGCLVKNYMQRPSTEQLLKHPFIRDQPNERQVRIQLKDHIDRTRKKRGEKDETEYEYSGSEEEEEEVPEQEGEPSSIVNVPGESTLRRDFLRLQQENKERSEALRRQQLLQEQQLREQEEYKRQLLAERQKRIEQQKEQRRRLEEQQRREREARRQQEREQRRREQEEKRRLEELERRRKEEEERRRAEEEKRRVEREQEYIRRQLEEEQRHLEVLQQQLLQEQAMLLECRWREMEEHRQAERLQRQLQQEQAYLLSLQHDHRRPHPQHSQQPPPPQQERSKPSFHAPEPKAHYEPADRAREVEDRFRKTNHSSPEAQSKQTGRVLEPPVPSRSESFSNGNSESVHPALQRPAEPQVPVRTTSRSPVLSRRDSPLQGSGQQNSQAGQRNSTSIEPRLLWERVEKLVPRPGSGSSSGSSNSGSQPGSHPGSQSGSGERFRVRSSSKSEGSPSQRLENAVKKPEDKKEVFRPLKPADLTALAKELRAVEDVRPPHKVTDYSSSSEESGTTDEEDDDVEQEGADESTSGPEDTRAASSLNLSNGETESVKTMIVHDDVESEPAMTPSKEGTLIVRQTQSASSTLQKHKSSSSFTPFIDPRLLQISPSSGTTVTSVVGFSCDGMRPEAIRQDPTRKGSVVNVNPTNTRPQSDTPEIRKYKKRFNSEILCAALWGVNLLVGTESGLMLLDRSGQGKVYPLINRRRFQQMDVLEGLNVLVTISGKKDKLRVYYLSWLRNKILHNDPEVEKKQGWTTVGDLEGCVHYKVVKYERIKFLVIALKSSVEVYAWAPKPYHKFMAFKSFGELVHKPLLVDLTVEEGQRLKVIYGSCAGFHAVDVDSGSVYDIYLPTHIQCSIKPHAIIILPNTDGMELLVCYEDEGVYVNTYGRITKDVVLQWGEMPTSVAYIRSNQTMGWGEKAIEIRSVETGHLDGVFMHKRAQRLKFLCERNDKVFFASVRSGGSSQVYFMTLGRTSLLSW
compound,measurement,setting,value
"FC(F)(F)c1c(Cl)ccc(-n2ccnn2)c1Cl [8l, 1-(2,4-Dichloro-3-(trifluoromethyl)phenyl)-1H-1,2,3-triazole]","fraction unbound at 5 h, 10 µM","[1]; 10% w/v in PBS, pH 7.4, mouse, 10 µM, 5 h, read-out: % Unbound in brain homogenate, mean",0.0298
same,"Brain binding, % bound",[1]; mouse brain homogenate,97.0%
same,"fraction unbound at 5 h, 10 µM","[1]; mouse, 10% w/v in PBS, pH 7.4, mouse brain homogenate, read-out: Brain binding, % bound (converted)",0.0298
same,"recovery at 5 h, 10 µM","[1]; mouse, mouse brain homogenate, 10% w/v in PBS, pH 7.4",107%
same,inhibition at 10 µM,[2],5%
same,inhibition at 10 µM,[3],-8%
same,% Inhibition mean,"[4]; LYN B, 10 μM",7%
same,% Inhibition mean,"[4]; PRKCB2 (PKC beta II), 10 μM",-17%
same,% Inhibition mean,"[4]; SRC N1, 10 μM",4%
same,inhibition at 10 µM,[5],3%
same,inhibition at 10 µM,[6],0%
same,inhibition at 10 µM,[7],23%
same,inhibition at 10 µM,[8],-3%
same,inhibition at 10 µM,[9],0%
same,inhibition at 10 µM,[10],5%
same,inhibition at 10 µM,[11],3%
same,inhibition at 10 µM,[12],3%
same,IC50,"CYP3A4; read-out: CYP inhibition IC50, 3A4(mid.), HLM, midazolam",> 50 µM
same,IC50,"CYP3A4; read-out: CYP inhibition IC50, 3A4(test.), HLM, testosterone",> 50 µM
same,IC50,"CYP3A4; read-out: IC50 CYP3A4/Midazolam, (+)NADPH pre-incubation",> 50 µM
same,IC50,"CYP3A4; read-out: IC50 CYP3A4/Midazolam, (-)NADPH pre-incubation",> 50 µM
same,IC50,"CYP3A4; read-out: IC50 CYP3A4/Testosterone, (+)NADPH pre-incubation",> 50 µM
same,IC50,"CYP3A4; read-out: IC50 CYP3A4/Testosterone, (-)NADPH pre-incubation",> 50 µM
same,MLM Cli,[13],3.2 μL/min/mg protein
same,"Liver microsome stability Cli, MLM",[13]; additional study (Table 5),11.7 μL/min/mg protein
same,half-life,[13]; Table S4,2 h
same,half-life,[13]; Table S8,1.97 h
same,assays with >50% activity,[14],3/78
same,"Liver microsome stability Cli, DLM",[15],10.8 μL/min/mg protein
same,half-life,"[15]; dog, liver microsomes",2.14 h
same,"fraction unbound at 4 h, 2 µM","[16]; SD, rat, pH 7.4",0.0552
same,"fraction unbound at 4 h, 2 µM","[16]; SD, rat, pH 7.4, Plasma protein binding (PPB), % bound, rat plasma",0.0552
same,"recovery at 4 h, 2 µM","[16]; SD, rat, rat plasma, pH 7.4",99.3%
same,"Plasma protein binding (PPB), % bound",[16]; mouse plasma,95.8%
same,"recovery at 5 h, 10 µM","[16]; mouse, mouse plasma (K2EDTA), pH 7.4",89.9%
same,"Plasma protein binding (PPB), % bound",[16]; rat plasma,94.5%
same,IC50,"CYP2D6; read-out: CYP inhibition IC50, 2D6, HLM",> 50 µM
same,IC50,"CYP2D6; read-out: IC50 CYP2D6/Dextromethorphan, (+)NADPH pre-incubation",> 50 µM
same,IC50,"CYP2D6; read-out: IC50 CYP2D6/Dextromethorphan, (-)NADPH pre-incubation",> 50 µM
same,solubility,"[17]; 2% DMSO in PBS (with 10% solutol v/v), read-out: Solubility",3000 µg/mL
same,Mean Concentration of dose formulation,[17]; 20% w/v HPßCD in Water,1000 µg/mL
same,Mean Concentration of dose formulation,[17]; DMSO (2%v/v) + 10% v/v HPßCD in WFI (98% v/v/),1020 µg/mL
same,Mean Concentration of dose formulation,[17]; DMSO (2%v/v) + 10% v/v Solutol in PBS (98% v/v),960 µg/mL
same,solubility,"[17]; dose formulations with cosolvents, read-out: aqueous solubility with cosolvents",1000 µg/mL
same,half-life,[18],2.78 h
same,hepatocyte CLint,[18],8.3 µL/min/1e6 cells
same,CL,in vivo; [19],10.4 mL/min/kg
same,Vdss,in vivo; [19],2.0 L/kg
same,AUC(0-inf),"in vivo; mouse, 2x30 mg/kg po, plasma",83400 ng·h/mL
same,AUC(0-t),"in vivo; mouse, 2x30 mg/kg po, plasma",82400 ng·h/mL
same,half-life,"in vivo; mouse, 2x30 mg/kg po, plasma",2.97 h
same,Tmax,"in vivo; mouse, 2x30 mg/kg po, plasma, read-out: Tmax",9.5 h
same,concentration at 10 h,"in vivo; mouse, brain, po, mouse 2x30 mg/kg po, read-out: Brain concentration, individual animal",7250 ng/g
same,Fo,"in vivo; mouse, p.o. 10 mg/kg",66%
same,brain Cmax (free drug),"in vivo; mouse, p.o. 10 mg/kg",≈ 300 nM
same,Tmax,"in vivo; mouse, p.o. 10 mg/kg, brain",1.0 h
same,t1/2,"in vivo; mouse, p.o. 10 mg/kg, brain",2.2 h
same,time brain levels maintained above 100 nM,"in vivo; mouse, p.o. 10 mg/kg, free drug",~4 h
same,Tmax,"in vivo; mouse, p.o. 10 mg/kg, plasma",0.5 h
same,concentration at 0.5 h,"in vivo; mouse, plasma, po, mouse 2x30 mg/kg po, 0.5 hr, read-out: Plasma concentration, individual animal",5.09 µg/mL
same,concentration at 1 h,"in vivo; mouse, plasma, po, mouse 2x30 mg/kg po, 1 hr, read-out: Plasma concentration, individual animal",4.92 µg/mL
same,concentration at 2 h,"in vivo; mouse, plasma, po, mouse 2x30 mg/kg po, 2 hr, read-out: Plasma concentration, individual animal",4 µg/mL
same,concentration at 4 h,"in vivo; mouse, plasma, po, mouse 2x30 mg/kg po, 4 hr, read-out: Plasma concentration, individual animal",3.18 µg/mL
same,concentration at 9 h,"in vivo; mouse, plasma, po, mouse 2x30 mg/kg po, 9 hr, read-out: Plasma concentration, individual animal",0.645 µg/mL
same,concentration at 9.25 h,"in vivo; mouse, plasma, po, mouse 2x30 mg/kg po, 9.25 hr, read-out: Plasma concentration, individual animal",5.94 µg/mL
same,concentration at 9.5 h,"in vivo; mouse, plasma, po, mouse 2x30 mg/kg po, 9.5 hr, read-out: Plasma concentration, individual animal",7.57 µg/mL
same,concentration at 10 h,"in vivo; mouse, plasma, po, mouse 2x30 mg/kg po, read-out: Plasma concentration, individual animal",6.27 µg/mL
same,concentration at 11 h,"in vivo; mouse, plasma, po, mouse 2x30 mg/kg po, 11 hr, read-out: Plasma concentration, individual animal",6.85 µg/mL
